The record followed here is patent publication US5635510A, “Substituted pyrrolidin-3-yl-alkyl-piperidines” (Merrell Pharmaceuticals Inc., priority 1994, dated 1997).

Experiment [1] concerns the target T1, NK2 receptor (Bos taurus, UniProt P05363).
T1 construct: expressed in transfected cells; host or cells: SKLKB82#3 cells
T1 sequence (P05363 1-384): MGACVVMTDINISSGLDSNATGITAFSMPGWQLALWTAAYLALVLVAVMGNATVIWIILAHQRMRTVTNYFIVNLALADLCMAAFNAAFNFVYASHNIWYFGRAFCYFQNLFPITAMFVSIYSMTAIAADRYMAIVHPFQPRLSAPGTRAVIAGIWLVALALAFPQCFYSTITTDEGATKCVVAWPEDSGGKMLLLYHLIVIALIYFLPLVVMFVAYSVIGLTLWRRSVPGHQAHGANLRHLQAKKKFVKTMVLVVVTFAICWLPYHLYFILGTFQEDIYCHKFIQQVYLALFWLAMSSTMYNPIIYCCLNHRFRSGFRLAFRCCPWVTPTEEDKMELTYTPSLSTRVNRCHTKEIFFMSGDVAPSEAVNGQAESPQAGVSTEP
In words: Antagonism of NK2 receptor mediated (NKA-induced) phosphatidylinositol turnover in SKLKB82#3 cells. It counts as cell-based. As to the method: Tachykinin-mediated inositol phosphate accumulation was measured in UC11 or SKLKB82#3 cells in the presence and absence of NK1 or NK2 receptor antagonists, respectively. Tissues were incubated in Krebs-Henseleit buffer at 37° C. with 95% O2 -5% CO2 gassing. Tissues were then incubated with fresh buffer containing 100 μCi of myo-[2-3H(N)] inositol at 37° C. for 60 min with gentle gassing. After washing twice in 5 ml room temperature buffer containing 10 mM LiCl, tissues were incubated for 30 min at room temperature with a buffer change at 15 min. Buffer was removed and Krebs-Henseleit buffer (containing 40 μg/ml bacitracin, 4 μg/ml each of leupeptin and chymostatin, 0.1% bovine serum albumin and 10 mM each of thiorphan and LiCl) added. After 15 min, SP was added to UC11 cells or NKA to SKLKB82#3 cells at various concentrations to start the reaction. After incubation for 60 min at room temperature the reaction was terminated by addition of 930 μl chloroform: methanol (1:2 by volume) to each tube, followed by 310 μl chloroform and 310 μl doubly distilled water. Samples were vortexed, centrifuged, and 0.9 ml of the aqueous (top) phase removed and added to 2 ml ddH2 O. The mixture was vortexed and loaded onto a 50% Bio-Rad AG 1-X8 (formate form, 100-200 mesh) exchange column (Bio-Rad Laboratories, Hercules, Calif.). The columns were washed, in order, with: 1) 10 ml doubly distilled water, 2) 5 ml of 5 mM disodium tetraborate/60 mM sodium formate, and 3) 5 ml of 1M ammonium formate/0.1M formic acid. The third elution was collected and 1 ml counted in 7 ml scintillation fluid. A 50 μl aliquot of the organic (bottom) phase was removed, dried in a scintillation vial and counted in 7 ml scintillation fluid.
The ratio of DPM in the aqueous phase aliquot (total inositol phosphates) to the DPM in the 50 μl organic phase aliquot (total [^3 H]inositol incorporated) was calculated for each sample. Data are expressed as a percent of agonist-induced accumulation of [^3 H]-inositol phosphates over basal levels. […] Dose-response graphs were constructed and the abilities of the test compounds to inhibit tachykinin-induced phosphatidyinositol turnover determined with the aid of a computer program. […] Data is expressed as percent stimulation of total inositol phosphate accumulation over basal levels and normalized to the maximum response produced by SP. […] Schild analysis is performed using dose response curves (such as those presented in FIGS. 1a and 1b) to obtain a value indicative of the strength of a competitive antagonist and is expressed as the pA2, which is the negative logarithm of the molar concentration of antagonist which reduces the effect of a dose of agonist to one-half of that expected at the dose of agonist.

In experiment [2] the test system is NK2 receptor. The experiment is described as follows: Antagonism of NKA-induced respiratory effects in conscious guinea pigs. It counts as in vivo, guinea pig. To be noted: for dyspnea incidence / dyspnea onset: i.v. 20 min prior to NKA aerosol (0.05%); for effect on NKA-induced respiratory effects (in words): NKA aerosol, dose dependent; for dyspnea onset: mean and SEM. The method, then: In vivo experiments were performed using male Duncan Hartley guinea pigs (250-350g). Changes in conscious breathing patterns were monitored in four animals simultaneously using modified whole body plethysmography consisting of four small plexiglass boxes each connected to a reference box via Validyne DP 45-16 differential pressure transducers. The 4 boxes were equipped with an air supply line (also used for aerosol delivery) and an exhaust air line. Supply and exhaust lines were of the same length and narrow bore and arose from a common supply chamber and vented to a common exhaust chamber. This system was used to ensure that fluctuations in supply air and atmospheric pressure would remain in phase and be eliminated from the net signal by the differential pressure transducers. The analog pressure signals were digitalized via a Data Translation DT2821 A to D board. Data were collected at a rate of 100 samples/second/animal. Each cycle of pressure change was analyzed using the following parameters: rising and falling slope determined between minimum and maximum pressures, the ratio of rising over falling slope, and the magnitude of the change between initial trough pressure and peak cycle pressure. Using these values (and observing the animals) the pressure cycles were characterized into normal breaths, forced exhalations (apparent by abdominal heaving), significant respiratory events (SREs; usually coughs, less often sneezes or gasps which were characterized by transient, extremely large pressure increases which were distinguishable from noise) and movement/noise with a PCAT 286 running a System V UNIX operating system. Dyspnea was defined as a significant, sustained increase in plethysmograph pressure which was associated with an observable shift to labored breathing in the animal.
During the course of a typical experiment in which airway responsiveness to various bronchoconstricting agents was examined, aerosols were delivered for 19 min (0.33 ml/min) using a DeVilbiss Ultraneb 99 ultrasonic nebulizer and animals monitored during this time. Prior to nebulization, 1 min of resting breathing was collected to establish a baseline pressure. […] The vehicle for nebulization of all bronchoconstrictive agents was phosphate buffered saline (pH 7.4) which elicited no respiratory effects itself. Putative tachykinin antagonists were administered either (i.v.) 20 min prior to onset of aerosol exposure or orally 1 hour prior to onset (to guinea pigs after an overnight fast).

Consider `COc1cc(C(=O)N2CCC(CCN3CCC(C(N)=O)(c4ccccc4)CC3)(c3ccc(Cl)c(Cl)c3)C2)cc(OC)c1OC` (stereo not shown) [Example 3, 1-[2-[3-(3,4-dichloro-phenyl)-1-(3,4,5-trimethoxy-benzoyl)-pyrrolidin-3-yl]-ethyl]-4-phenyl-piperidine-4-carboxylic acid amide], for which the “antagonism of NKA-induced PI turnover (in words)” value at NK2 receptor [1] (SKLKB82#3 cells, FIG. 1b) is “antagonizes both NK1 (on UC11 cells) and NK2 (on SKLKB82#3) receptors in a dose-dependent manner”. In addition, the values for the dyspnea incidence with NK2 receptor [2] (5 mg/kg) and in the experiment with NK2 receptor [2] (10 mg/kg) were 86% and 60%, respectively. In addition, in the experiment on NK2 receptor [2], the “effect on NKA-induced respiratory effects (in words)” value was “reduced the effects of NKA aerosol”.
`COc1cc(C(=O)N2CCC(CCN3CCC(C(N)=O)(c4ccccc4)CC3)(c3ccc(Cl)c(Cl)c3)C2)cc(OC)c1OC.Cl` (single isomer, unassigned; (+)) [Example 20A, (+)-1-[2-[3-(3,4-dichloro-phenyl)-1-(3,4,5-trimethoxy-benzoyl)-pyrrolidin-3-yl]-ethyl]-4-phenyl-piperidine-4-carboxylic acid amide hydrochloride]: the dyspnea incidence turned out to be 100% in the experiment on NK2 receptor [2] (1 mg/kg), 90% in the experiment with NK2 receptor [2] (5 mg/kg) and 70% with NK2 receptor [2] (10 mg/kg). Besides, the figures for the dyspnea onset in the experiment with NK2 receptor [2] (1 mg/kg), in the experiment on NK2 receptor [2] (5 mg/kg) and with NK2 receptor [2] (10 mg/kg) were 451 ± 30 s, 706 ± 82 s and 829 ± 105 s, respectively. In the experiment with NK2 receptor [2], the “effect on NKA-induced respiratory effects (in words)” value is “reduced the effects of NKA aerosol”.
One may read the Kb as the equilibrium dissociation constant of an antagonist, usually derived from a functional assay. Higher therefore signals a less potent antagonist. Take `COc1cc(C(=O)N2CCC(CCN3CCC(C(N)=O)(c4ccccc4)CC3)(c3ccc(Cl)c(Cl)c3)C2)cc(OC)c1OC` (single isomer, unassigned; (+)) [Example 20, (+)-1-[2-[3-(3,4-dichloro-phenyl)-1-(3,4,5-trimethoxy-benzoyl)-pyrrolidin-3-yl]-ethyl]-4-phenylpiperidine-4-carboxylic acid amide]: the Kb on NK2 receptor [1] was 2.14 nM. Moreover, the NK-2 receptor slope on NK2 receptor [1] (SKLKB82#3 cells, NKA, Schild slope, mean (95% confidence limits)) is 1.00.
